What was measured:
PAMPA permeability assay = format: in vitro ADME; conditions: pH 7.4
Akt = assay: Selectivity profile: Akt; format: biochemical; conditions: for IC50: read-out: Akt, IC50, selectivity profile
Plasma stability assay = format: in vitro ADME, rat; conditions: for plasma stability: after 1 h of incubation in rat plasma; for remaining at 1 h, 1 μM: rat, fresh rat plasma

SMILES	Cell permeability, PAMPA % Flux (PAMPA permeability assay)	IC50 (Akt)	plasma stability (Plasma stability assay)	remaining at 1 h, 1 μM (Plasma stability assay)	activity against the kinase Akt (Akt)
O=[N+]([O-])c1cnc(Sc2nnc(O)n2-c2ccc3c(c2)OCCO3)s1 [BI-78D3, reference compound]	30%			42%	
CCCNc1nnc(Sc2ncc([N+](=O)[O-])s2)s1 [BI-90H6, 5-(5-nitrothiazol-2-ylthio)-N-propyl-1,3,4-thiadiazol-2-amine]	49.8%	> 100 µM	degraded rapidly	35%	

The remaining lines, values ahead:

Cell permeability, PAMPA % Flux (PAMPA permeability assay)	IC50 (Akt)	plasma stability (Plasma stability assay)	remaining at 1 h, 1 μM (Plasma stability assay)	activity against the kinase Akt (Akt)	SMILES
5.5%	> 100 µM	degraded rapidly	0%		COc1ccc(CCNc2nnc(Sc3ncc([N+](=O)[O-])s3)s2)cc1OC [BI-90H10, N-(3,4-dimethoxyphenethyl)-5-(5-nitrothiazol-2-ylthio)-1,3,4-thiadiazol-2-amine]
76.3%	> 100 µM		68%	practically inactive	COCCNc1nnc(Sc2ncc([N+](=O)[O-])s2)s1 [BI-90H9, N-(2-methoxyethyl)-5-(5-nitrothiazol-2-ylthio)-1,3,4-thiadiazol-2-amine]
	> 100 µM				CCC(C)Nc1nnc(Sc2ncc([N+](=O)[O-])s2)s1 (stereo not drawn) [BI-98A10, N-sec-butyl-5-(5-nitrothiazol-2-ylthio)-1,3,4-thiadiazol-2-amine]

— article PMC2818674 (Bioorganic & medicinal chemistry, 2009)
